Test results from patent publication US8859628B2, “Method for preventing, treating and diagnosing disorders of protein aggregation” (priority 2003, dated 2014).
Entries after “also recorded” stand apart in the source; their conditions may differ. Marks after values point to notes of the source that are not given here.

Columns and labels:
[1] = system: TgCRND8 mice; settings: mouse, in vivo
Text: Animals were sacrificed after one month of treatment and analysed for pathological outcomes.
In these experiments, the dosage and oral administration of compounds, and the behavioral and neurochemical assays were the same as those employed in the above treatment experiments.

[2] = system: wild type mice; test: Control experiment: survival and general condition of treated wild type mice; type: in vivo, mouse
[3] = system: TgCRND8 mice; test: Cerebral amyloid plaque burden (anti-Aβ immunostaining, image analysis); type: in vivo, mouse
Procedure: (§1) Cerebral amyloid burden—Brains were removed and one hemisphere was fixed in 4% paraformaldehyde and embedded in paraffin wax in the mid saggital plane. To generate sets of systematic uniform random sections, 5 μm serial sections were collected across the entire hemisphere. Sets of sections at […] intervals were used for analyses (10-14 sections/set). Plaque were identified after antigen retrieval with formic acid, and incubated with primary anti-Aβ antibody (Dako M-0872), followed by secondary antibody (Dako StreptABCcomplex/horseradish kit). End products were visualized with DAB counter-stained with hematoxylin. Amyloid plaque burden was assessed using Leco IA-3001 image analysis software interfaced with Leica microscope and Hitachi KP-M1U CCD video camera. Vascular burden was analyzed similarly and a dissector was used to measure the diameter of affected vessels.
as §1, with “camera.” for “camera. Vascular burden was analyzed similarly and a dissector was used to measure the diameter of affected vessels.”

[4] = system: TgCRND8 mice; test: Vascular amyloid burden; type: in vivo, mouse; settings: 6 months of age
Procedure: as §1
Alzheimer's disease is characterized by the presence of both parenchymal and vascular amyloid deposits. In untreated 6 month old TgCRND8 mice approximately 0.03% of the brain area is associated with vascular amyloid.

[5] = system: TgCRND8 mice; test: Survival census (Kaplan-Meier); type: in vivo, mouse; settings: at 175 days; n=35 per group
Procedure: Survival Census—The probability of survival was assessed by the Kaplan-Meier technique, computing the probability of survival at every occurrence of death, thus making it suitable for small sample sizes. For the analyses of survival, 35 mice were used for each treatment group. The comparison between treatments was reported using the Tarone-Ware test.

[6] = system: TgCRND8 mice; test: Plasma Aβ levels; type: in vivo, mouse
Procedure: (§2) Plasma and Cerebral Aβ Content—Hemi-brain samples were homogenized in a buffered sucrose solution, followed by either 0.4% diethylamine/100 mM NaCl for soluble Aβ levels or cold formic acid for the isolation of total Aβ. After neutralization the samples were diluted and analyzed for Aβ40 and Aβ42 using commercially available kits (BIOSOURCE International). Each hemisphere was analyzed in triplicate with the mean±SEM reported. Western blot analyses were performed on all fractions using urea gels for Aβ species analyses. Aβ was detected using 6E10 (BIOSOURCE International) and Enhanced Chemiluminenscence (Amersham).
as §2, with “reported.” for “reported. Western blot analyses were performed on all fractions using urea gels for Aβ species analyses. Aβ was detected using 6E10 (BIOSOURCE International) and Enhanced Chemiluminenscence (Amersham).”

[7] = system: non-Tg littermates; test: Morris Water Maze performance of treated non-Tg littermates; type: in vivo, mouse; settings: treated vs untreated non-Tg
Procedure: (§3) Behavioral tests—After non-spatial pre-training, mice underwent place discrimination training for 5 days with 4 trials per day. Behavioral data was analyzed using a mixed model of factorial analysis of variance (ANOVA) with drug or genotype and training sessions as repeated measure factors.
Behavioral Test—Reversal Study—Mice entered the Morris water maze test with a hidden platform on day one without pretraining. Mice were tested for 3 days with six trials per day. On the fourth day, the platform was removed from the pool and each mouse received one 30-s swim probe trial. On the last day the animals underwent a cue test in order to evaluate swimming ability, eye sight and general cognition. The cue test is composed at the platform being placed in a different quadrant than that used for testing and is tagged with a flag. Animals are allowed 60 s to find the platform. […] Behavioural data was analysed using a mixed model of factorial analysis of variance (ANOVA) with drug or genotype and training sessions as repeated measure factors.

[8] = system: TgCRND8 mice; test: Morris Water Maze, spatial reference memory version, five-day trial paradigm (prevention study); type: in vivo, mouse; settings: 6 months of age
Procedure: Age and sex-matched cohorts of TgCRND8 mice and non-transgenic littermates (n=35 in each cohort) were either untreated, or were given a compound of the present invention as indicated below at 30 mg/day/mouse beginning at age of about 6 weeks. The mice were followed for outcome measures cognitive function, brain Aβ levels, brain pathology, and survival at 4 months and 6 months of age.
Two cohorts entered the study at 6 weeks of age and outcomes were analyzed at 4- and 6-months of age. The body weight, coat characteristics and in cage behavior was monitored. All experiments were performed according to the Canadian Council on Animal Care guidelines.
as §3
The cognitive function of TgCRND8 mice was assessed using the spatial reference memory version of the Morris Water Maze using a five-day trial paradigm (FIGS. 1C-1H). […] The improved performance was also not due to nutritional or caloric effects because body weight, activity, and coat condition were not different between treated and untreated cohorts. […] Gender effects were not significant between any treatment group (p=0.85).

[9] = system: TgCRND8 mice; test: Gliosis quantitation (GFAP astrocytes, CD68 microglia); type: in vivo, mouse; settings: prevention
Text: Gliosis Quantitation—Five randomly selected, evenly spaced, sagittal sections were collected from paraformaldehyde-fixed and frozen hemispheres of treated and control mice. Sections were immunolabelled for astrocytes with anti-rat GFAP IgG2a (Dako; diluted 1:50) and for microglia with anti-rat CD68 IgG2b (Dako; 1:50).
Serial sagittal sections were stained with the astrocytic marker glial fibrillary acidic protein (GFAP) and quantitated for percent brain area covered by astrogliosis.

[10] = 1 month treatment from 5 months of age
[11] = 1 month treatment, 30 mg/mouse/day from 5 months, analyzed at 6 months of age
[12] = 4 month prevention, 30 mg/mouse/day from 6 weeks of age
[13] = 6 month prevention, 30 mg/mouse/day from 6 weeks of age

## O[C@H]1[C@H](O)[C@@H](O)[C@H](O)[C@@H](O)[C@@H]1O [Scyllo-Inositol, scyllo-inositol]
[1]
  effects on blood chemistry or organ function: do not exhibit obvious deleterious effects on blood chemistry or organ function
[2]
  survival, weight, fur condition, cage behavior: had no effect either on survival or on other parameters such as weight, fur condition or cage behavior
[3]; [10]
  plaque burden vs untreated: significantly decreased the plaque burden and the Aβ load
[3]; [11]
  Plaque Area: 420027 ± 14986* μm^2
  Plaque Count: 1260 ± 27
  Total Plaque Area/Total Brain Area: 0.119 ± 0.010 %
[3]; [12]
  Plaque Area: 63847 ± 2895 μm^2
  Plaque Count: 598 ± 19
  Total Plaque Area/Total Brain Area: 0.015 ± 0.001 %
[3]; [13]
  Plaque Area: 262379 ± 5373† μm^2
  Plaque Count: 774 ± 10
  Total Plaque Area/Total Brain Area: 0.079 ± 0.013 %
[3]; 6 months of age, prevention
  amyloid/plaque burden vs untreated (words): significantly decreased amyloid burden and gliosis; also recorded: decreases plaque deposition
[3]; prevention, 4 months of age
  mean plaque size: 103±4 μm^2
[3]; prevention, 6 months of age
  decrease in brain area covered with plaques: 35%
  mean plaque size: 339±10 μm^2
  reduction in plaque number: 20%
[4]; prevention
  mean size of cerebrovascular plaques: 154±16
[4]; prevention, listed as Scyllo-inositol
  vascular amyloid burden vs untreated (words): significantly decreased the total vascular load
[4]; prevention, listed as scyllo-inositol
  vascular amyloid burden vs untreated (words): significantly decreased the vascular amyloid burden
[4]; smaller vessels
  vascular amyloid deposition in small vessels: 56±2%
[5]
  survival: 72%
[6]; 1 month treatment
  Plasma Aβ Levels: 1980 ± 146 pg/mL
[6]; [10]
  effect on plasma Aβ levels in comparison to untreated (words): Neither myo-inositol, epi-inositol nor scyllo-inositol treatment had any effect on plasma Aβ levels
[6]; 2 month treatment
  Plasma Aβ Levels Aβ40: 4507 ± 207 pg/mL
  Plasma Aβ Levels Aβ42: 3035 ± 236 pg/mL
[6]; 4 month prevention
  Plasma Aβ Levels: 952 ± 49 pg/mL
[6]; 6 month prevention
  Plasma Aβ Levels: 905 ± 55 pg/mL
[6]; prevention, 4- and 6-months of age
  effect on plasma Aβ levels in comparison to untreated (words): Neither epi-inositol nor scyllo-inositol treatment had any effect on plasma Aβ levels
[7]
  effect on performance of non-Tg mice: had no effect on the performance of non-Tg mice; also recorded: not effected
[8]
  cognitive function, treated TgCRND8 mice vs non-Tg littermates (words): indistinguishable from non-Tg littermates on all days; also recorded: approached that of non-Tg littermates
  cognitive function, treated vs untreated TgCRND8 mice (words): performed significantly better than untreated TgCRND8 mice
[9]; 6 months of age
  astrogliosis/gliosis vs untreated: significantly decreased amyloid burden and gliosis
[9]; 6-months of age
  astrogliosis, percent brain area covered (GFAP): 0.269±0.028%
[9]; 6 months
  microglial activation, % brain area: 0.20±0.008%
